Patent US20110245334A1, “USE OF RACEMATES OF PINOCEMBRIN IN PREPARING MEDICAMENTS FOR TREATING STROKE” (CSPC Zhonggi Pharmaceutical Technology (Shijiazhuang) Co. …, priority 2008, published 2011)

Tests used:
Assay type in all cases: in vivo, rat
[1] = system: MCAO rats; experiment: Regional cerebral blood flow (LDF), MCAO; details: 3 mg/kg
Excerpt: The rats were fixed pronely on the stereotaxic apparatus and subjected to craniotomy. After cleaning for operation visual field, bregma was used as an origin, and a site situated 2 mm behind and 3 mm right to the bregma was selected as a measuring point. The region […] around the site was thinned by a dental drill. In the process, the integrity of dura was maintained and large vessels were avoided. Probe holder was located and fixed.
The rats were supinely fixed on the operating table to carry out MCAO surgery. When a nylon line was inserted in ICA, it was not inserted into intracranial part until LDF value was stable, and blood flow value in 10 min was recorded, and an average value thereof is used as a baseline value of cerebral blood flow. After the MCAO surgery completed, the nylon line was inserted into the intracranial part. When the blood flow value suddenly declined to 20-30% of the baseline value, it was noted that the blood flow in MCA had been blocked. The blood flow value before MCAO in every group was used as a baseline value (100%) of the group. […] LDF value was determined at the same site before the animals was put to death.

[2] = system: MCAO rats; experiment: Cerebral infarct volume (TTC), MCAO; details: 3 mg/kg
Description: After neurobehavioral scoring, the rats were put to death by decollation and their brain tissues were removed quickly and put into a refrigerator of −20° C. 10 min later, the brain tissue was moved to an environment of room temperature. After the olfactory bulb, cerebellar and lower brain stem were resected, the brain tissue was cut into five continuous coronal slices with an interval of 2 mm and was cut first on the connection midpoint of brain anterior pole and optic decussation, second on optic decussation, third on funnel handle and fourth on midpoint of funnel handle and thick leaves caudate nucleus. Then the brain slices were quickly put into 5 ml solution containing 4% TTC and 0.1 ml mol·L^−1K2HPO4 and incubated at a constant temperature of 37° C. and in condition of darkness for 30 min. During the time period, the brain slices were tipped every 5 min. […] Every group of brain slices were put in order and photographed. The photographs were processed by an image analysis system and infarct area in every slice was calculated. The infarct volume of every slice was calculated by multiplying the infarct area by the thickness of slice (2 mm), and the infarct volume was the sum of infarct volumes of all slices.
Infarct volume(%)=(volume of surgery-contralateral hemisphere−infarct volume of surgery-homolateral hemisphere)/volume of surgery-contralateral hemisphere×100%

[3] = system: tMCAO rats; experiment: Infarct volume (TTC), tMCAO time window study; details: 2 hours ischemia and 24 hours reperfusion, 1 mg/kg, 3 h
Description: 1. In the test, transient middle cerebral artery occlusion (tMCAO) model of rats was adopted. The reperfusion was performed after focal cerebral ischemia for 2 hours so as to inspect therapeutic time window of pinocembrin after focal cerebral ischemia. The rats were administered by pinocembrin racemate (1 mg/kg, 5 mg/kg, intravenous injection) after reperfusion 1 hour, 4 hours and 6 hours (i.e., ischemia 3 hour, 6 hours and 8 hours). (R)-pinocembrin and (S)-pinocembrin (1 mg/kg, 5 mg/kg, intravenous injection) were administered after reperfusion 1 hour and 4 hours (i.e., ischemia 3 hour and 6 hours). The therapeutic time windows of these drugs in focal cerebral ischemia were assessed by studying their effects to neurological symptom scores, infarct sizes and brain water contents during 24 hours after tMCAO.
2.4 Experimental Grouping and Administration • Sham operation group (intravenous injection of normal saline after 3 hours of ischemia); • Model group (intravenous injection of 50 mg/kg hydroxypropyl β-cyclodextrin after 3 hours of ischemia); • Nimodipine group (1 mg/kg, administered after 3 hours of ischemia); • Pinocembrin racemate group (1 mg/kg, 5 mg/kg, administered after 3, 6 and 8 hours of ischemia); • (R)-pinocembrin group (1 mg/kg, 5 mg/kg, administered after 3 and 6 hours of ischemia); • (S)-pinocembrin group (1 mg/kg, 5 mg/kg, administered after 3 and 6 hours of ischemia).
First administration was performed by intravenous injection, and intraperitoneal injection was carried out once 12 hours later with a dose 1.5 times of that for intravenous injection.
After neurobehavioral scoring, the rats were put to death by decollation and their brain tissues were taken out quickly and put into a refrigerator of −20° C. 10 min later, the brain tissues were moved to an environment of room temperature. After the olfactory bulb, cerebellar and lower brain stem were resected, the brain tissue was cut into six continuous coronal slices with an interval of 2 mm. Then the brain slices were quickly put into 5 ml solution containing 2% TTC and incubated at a constant temperature of 37° C. and in a condition of darkness for 30 min. During the time, the brain slices were tipped every 5 min. […] Every group of brain slices were put in order and photographed. The photographs were processed by an image analysis system and the infarct areas in each slice were calculated. The infarct volume of each slice was calculated via multiplying the infarct area by thickness of slice (2 mm), and the infarct volume was the sum of infarct volumes of all slices. The infarct volume percentage was expressed as: sick-side infarct volume/total sick-side brain volume.

COCCOC(=O)C1=C(C)NC(C)=C(C(=O)OC(C)C)C1c1cccc([N+](=O)[O-])c1 (stereo not shown) [Nimodipine, reference compound]
regional cerebral blood flow (rCBF) ([1]; time point 10 min): 99.91 ± 7.27 % of baseline value
regional cerebral blood flow (rCBF) ([1]; time point 20 min): 32.98 ± 8.09 % of baseline value
regional cerebral blood flow (rCBF) ([1]; time point 30 min): 55.58 ± 6.09 % of baseline value
regional cerebral blood flow (rCBF) ([1]; time point 30 min, listed as nimodipine): 55.58±6.09 % of baseline value
regional cerebral blood flow (rCBF) ([1]; time point 40 min): 67.96 ± 7.81 % of baseline value
regional cerebral blood flow (rCBF) ([1]; time point 50 min): 66.59 ± 9.08 % of baseline value
regional cerebral blood flow (rCBF) ([1]; time point 60 min): 64.09 ± 8.03 % of baseline value
regional cerebral blood flow (rCBF) ([1]; time point 70 min): 65.72 ± 8.58 % of baseline value
regional cerebral blood flow (rCBF) ([1]; time point 80 min): 64.98 ± 6.25 % of baseline value
regional cerebral blood flow (rCBF) ([1]; time point 90 min): 63.99 ± 6.09 % of baseline value
regional cerebral blood flow (rCBF) ([1]; time point 100 min): 67.01 ± 5.67 % of baseline value
regional cerebral blood flow (rCBF) ([1]; time point 110 min): 63.07 ± 6.1 % of baseline value
regional cerebral blood flow (rCBF) ([1]; time point 120 min): 61.85 ± 7.14 % of baseline value
regional cerebral blood flow (rCBF) ([1]; time point 130 min): 67.12 ± 8.09 % of baseline value
regional cerebral blood flow (rCBF) ([1]; time point 140 min): 65.89 ± 6.81 % of baseline value
regional cerebral blood flow (rCBF) ([1]; time point 150 min): 61.8 ± 8.08 % of baseline value
regional cerebral blood flow (rCBF) ([1]; time point 160 min): 63.47 ± 9.03 % of baseline value
regional cerebral blood flow (rCBF) ([1]; time point 170 min): 65.9 ± 7.58 % of baseline value
regional cerebral blood flow (rCBF) ([1]; time point 180 min): 66.08 ± 6.89 % of baseline value
Percentage of infarct volume (%) [2]: 16.7 ± 1.3 %
Percentage of infarct volume (%) ([2]; listed as nimodipine): 16.7±1.3%
Infarct percentage (%) [3]: 31.30 ± 10.31%
